Measured values published in ChEMBL document CHEMBL2016505, “Footprint-based identification of viral entry inhibitors targeting HIVgp41” (Bioorg Med Chem Lett, 2012).

Key:
[1] = Cytotoxicity against human MAGI-CCR5 cells assessed as cell viability by MTS assay; format: cell-based
[2] = Binding affinity to gp41 in HIV1 by fluorescence analysis; design: species or system Human immunodeficiency virus 1
[3] = Inhibition of HIV1 3B gp41-mediated cell-cell fusion between viral envelope expressing virus-infected HL2/3 cells to human MAGI-CCR5 cells after 6 hrs by luciferase reporter gene assay; format: cell-based; conditions: Human immunodeficiency virus 1, MAGI-CCR5, 6 h

SMILES	Ki [2]	IC50 [3]	CC50 [1]
Cc1ccc(OCCn2cc(/C=C/C(=O)O)c3ccccc32)cc1	13 µM	43 µM	> 50 µM
Cc1cccc(NC(=O)CN2C(=O)N/C(=C/c3cccn3-c3cccc(C(=O)O)c3)C2=O)c1	4.45 µM	160 µM	> 100 µM
O=C(CN1C(=O)N/C(=C/c2ccccc2OCc2ccc(C(=O)O)cc2)C1=O)Nc1ccccc1	7.1 µM	34 µM	> 50 µM
COc1ccc(C(=O)Oc2ccc(Br)cc2/C=N/N=C2\NC(=O)[C@H](CC(=O)O)S2)cc1	1.6 µM	41.1 µM	208 µM

Continued, in another order:

Ki [2]	IC50 [3]	SMILES	CC50 [1]
0.2 µM	4.64 µM	O=C(O)c1cccc(N/N=C2\C(=O)N(c3nc(-c4ccccc4)cs3)N=C2c2ccccc2)c1	53 µM
2.55 µM	53.5 µM	CCc1nc2nc(CSc3nnc(NC(=O)COc4ccc(C)c(C)c4)s3)cc(O)n2n1	> 50 µM
0.46 µM	13.3 µM	Cc1ccc(-c2nc(SCC(=O)Nc3ccc(C)c(C)c3)n3[nH]c(=O)cc3n2)cc1	> 50 µM
